Test: Hepatotoxicity (fold increases of AST or ALT over the upper limit of normal) in the phase II clinical trial
Format: in vivo, human
Protocol: Relevant genetic polymorphisms were identified in a multicenter, randomized, double-masked placebo-controlled dose finding phase II trial of N-benzoyl-staurosporine, which was conducted in subjects with diabetic macular edema. The safety of N-benzoyl-staurosporine was evaluated in the subjects and additional pharmacokinetic information on was collected. […] Subjects were flagged as having experienced hepatotoxicity if either aspartate aminotransferase (AST) or alanine aminotransferase (ALT) had fold elevations over the upper limit of normal on visit 3, 4 or 5.
The diagnosis of hepatotoxicity can be accomplished using assays of serum enzyme levels. Serum enzyme assays indicative of liver dysfunction are well-known to those of skill in the medical arts and routine in hospital laboratories. For a definition of hepatotoxicity based upon serum levels of aspartate transaminase (AST) and used in the EXAMPLE: The definition of hepatotoxicity used in this analysis was based on fold increases in serum aspartate transaminase or alanine aminotransferase over the upper limit of normal (ULN) on visits 3, 4 or 5. The upper limit of normal for serum aspartate transaminase is 42 U/L for ages 3-64 and 55 U/L for ages 65 and up; for serum alanine aminotransferase the upper limit of normal is 48 U/L (Smithkline Beecham Clinical Laboratories Reference Alert Ranges). While an elevation of either enzyme at visit 3, 4 or 5 constituted hepatotoxicity, transaminase elevations were disregarded during subsequent visits when the drug was not being administered. Furthermore, subjects who had elevated liver function tests at baseline (visit 2) were not flagged as having experienced hepatotoxicity, regardless of the elevation in their enzyme levels following administration of the drug. Nine subjects were flagged as having experienced hepatotoxicity. Of these, six consented to clinical pharmacogenetic analysis.
Hepatotoxicity and N-benzoyl-staurosporine metabolism. The relationship between the occurrence of hepatotoxicity in the clinical trial and the dose of N-benzoyl-staurosporine administered was examined. The percentage of subjects per dose group that experienced hepatotoxicity are as follows: 3% for 50 mg/day, 8% for 100 mg/day and 14% of those that took 150 mg/day. While most of the subjects that experienced liver toxicity took the highest dose of N-benzoyl-staurosporine, the association between of N-benzoyl-staurosporine dose and hepatotoxicity is not significant (p=0.09; Fisher's Exact).

Which results are given for CO[C@@H]1[C@H](N(C)C(=O)c2ccccc2)C[C@H]2O[C@]1(C)n1c3ccccc3c3c4c(c5c6ccccc6n2c5c31)C(=O)NC4 [N-benzoyl-staurosporine]?
percentage of subjects per dose group that experienced hepatotoxicity (50 mg/day, subjects with diabetic macular edema): 3%; percentage of subjects per dose group that experienced hepatotoxicity (100 mg/day, subjects with diabetic macular edema): 8%; percentage of subjects per dose group that experienced hepatotoxicity (150 mg/day, subjects with diabetic macular edema): 14%; Hepatotoxicity Yes (CPG samples (83 subjects, all arms incl. 0 mg/day)): 7%; Hepatotoxicity Yes (Trial samples (139 subjects, all arms incl. 0 mg/day)): 6%; subjects that experienced hepatotoxicity (of the 140 subjects enrolled in the clinical trial (all arms)): nine; safety profile (phase II trial, subjects with diabetic macular edema): good safety profile

Source: US20070248955A1, “Use Of Genetic Polymorphisms To Predict Drug-Induced Hepatotoxicity” (NOVARTIS AG, priority 2003, published 2007)
